Laboratory results: US10206394B2, “Herbicidal compounds” (Syngenta Participations AG, priority 2014, dated 2019)
Where two headings read alike, the source gives them in different places.

Experiments:
Assay in all cases: Glasshouse assay for herbicidal activity (pre- and post-emergence), percentage phytotoxicity
Assay type in all cases: in vivo
[1] = system: Alopecurus myosuroides (ALOMY); conditions: Alopecurus myosuroides, rate 250 g/ha
Method in brief: (§1)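 Seeds were sown in standard soil in pots and grown one day (pre-emergence) or about 12 days (post-emergence) before herbicide application. Plants were kept at 24/18 °C (warm-climate) or 20/16 °C (cool-climate) day/night, 16 h light, 65% humidity, watered twice daily, and damage was scored visually at 15 DAA (POST) or 20 DAA (PRE).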

Avena fatua (AVEFA) = conditions: Avena fatua, rate 250 g/ha
Method in brief: as §1

[2] = system: Echinochloa crus-galli (ECHCG); conditions: Echinochloa crus-galli, rate 250 g/ha
Method in brief: as §1

Lolium perenne (LOLPE) = conditions: Lolium perenne, rate 250 g/ha
Method in brief: as §1

[3] = post-emergence, 360 h, POST-emergence, visual score 15 DAA (100%=total damage, 0%=no damage), read-out: Post-emergence herbicidal activity (percentage phytotoxicity) ALOMY POST
[4] = pre-emergence, 480 h, PRE-emergence, visual score 20 DAA (100%=total damage, 0%=no damage), read-out: Pre-emergence herbicidal activity (percentage phytotoxicity) ALOMY PRE
[5] = post-emergence, 360 h, POST-emergence, visual score 15 DAA (100%=total damage, 0%=no damage), read-out: Post-emergence herbicidal activity (percentage phytotoxicity) AVEFA POST
[6] = pre-emergence, 480 h, PRE-emergence, visual score 20 DAA (100%=total damage, 0%=no damage), read-out: Pre-emergence herbicidal activity (percentage phytotoxicity) AVEFA PRE
[7] = post-emergence, 360 h, POST-emergence, visual score 15 DAA (100%=total damage, 0%=no damage), read-out: Post-emergence herbicidal activity (percentage phytotoxicity) ECHCG POST
[8] = pre-emergence, 480 h, PRE-emergence, visual score 20 DAA (100%=total damage, 0%=no damage), read-out: Pre-emergence herbicidal activity (percentage phytotoxicity) ECHCG PRE
[9] = post-emergence, 360 h, POST-emergence, visual score 15 DAA (100%=total damage, 0%=no damage), read-out: Post-emergence herbicidal activity (percentage phytotoxicity) LOLPE POST
[10] = pre-emergence, 480 h, PRE-emergence, visual score 20 DAA (100%=total damage, 0%=no damage), read-out: Pre-emergence herbicidal activity (percentage phytotoxicity) LOLPE PRE

Measured: pest or weed control at 250 g/ha

Cc1cc(-c2ncc(Br)cn2)cc(C)c1C1C(=O)CC(CC(=O)NC(C)(C)C)C1=O (stereo not drawn) [Compound B268]
100%: [1]; [4] | Avena fatua (AVEFA); [5] | [2]; [7] | [2]; [8] | Lolium perenne (LOLPE); [9] | Lolium perenne (LOLPE); [10]
90%: [1]; [3] | Avena fatua (AVEFA); [6]

CNC(=O)CC1CC(=O)C(c2c(C)cc(-c3ncc(F)cc3F)cc2C)C1=O (stereo not drawn) [Compound B269]
100%: [1]; [3] | [1]; [4] | Avena fatua (AVEFA); [5] | Avena fatua (AVEFA); [6] | [2]; [7] | [2]; [8] | Lolium perenne (LOLPE); [9] | Lolium perenne (LOLPE); [10]

Cc1cc(-c2ncc(C#N)cn2)cc(C)c1C1C(=O)CC(CC(=O)NC(C)(C)C)C1=O (stereo not drawn) [Compound B270]
100%: [1]; [3] | [1]; [4] | Avena fatua (AVEFA); [5] | [2]; [7] | [2]; [8] | Lolium perenne (LOLPE); [10]
90%: Avena fatua (AVEFA); [6] | Lolium perenne (LOLPE); [9]

COc1ccc(CNC(=O)CC2CC(=O)C(c3c(C)cc(-c4ncc(F)cn4)cc3C)C2=O)cc1 (stereo not drawn) [Compound B271]
80%: [1]; [4] | Avena fatua (AVEFA); [6] | Lolium perenne (LOLPE); [10]
90%: Lolium perenne (LOLPE); [9]
100%: [1]; [3] | Avena fatua (AVEFA); [5] | [2]; [7] | [2]; [8]

Cc1cc(-c2ncc(F)cn2)cc(C)c1C1C(=O)CC(CC(=O)NCc2ccc(C#N)cc2)C1=O (stereo not drawn) [Compound B272]
90%: [2]; [8]
100%: [1]; [3] | Avena fatua (AVEFA); [5] | [2]; [7]
80%: [1]; [4] | Avena fatua (AVEFA); [6] | Lolium perenne (LOLPE); [9]
50%: Lolium perenne (LOLPE); [10]

Cc1cc(-c2ncc(F)cn2)cc(C)c1C1C(=O)CC(CC(=O)N(C)Cc2cccc(F)c2)C1=O (stereo not drawn) [Compound B273]
100%: [1]; [3] | Avena fatua (AVEFA); [5] | [2]; [7] | [2]; [8] | Lolium perenne (LOLPE); [9] | Lolium perenne (LOLPE); [10]
90%: [1]; [4] | Avena fatua (AVEFA); [6]

C/C=C/c1cc(C)c(C2C(=O)CC(CC(=O)N(C)C(C)(C)C)C2=O)c(CC)c1 (stereo not drawn) [Compound B274]
50%: Avena fatua (AVEFA); [6]
100%: [1]; [3] | Avena fatua (AVEFA); [5] | [2]; [7]
90%: Lolium perenne (LOLPE); [9]
70%: [1]; [4] | [2]; [8] | Lolium perenne (LOLPE); [10]

Cc1cc(-c2ncc(F)cn2)cc(C)c1C1C(=O)CC(CC(=O)NC(C)C)C1=O (stereo not drawn) [Compound B275]
100%: [1]; [3] | [1]; [4] | Avena fatua (AVEFA); [5] | Avena fatua (AVEFA); [6] | [2]; [7] | [2]; [8] | Lolium perenne (LOLPE); [9] | Lolium perenne (LOLPE); [10]

Cc1cc(-c2ncc(F)cn2)cc(C)c1C1C(=O)CC(CC(=O)N2CCOCC2)C1=O (stereo not drawn) [Compound B276]
80%: Avena fatua (AVEFA); [6]
90%: [1]; [3] | Avena fatua (AVEFA); [5] | Lolium perenne (LOLPE); [10]
100%: [1]; [4] | [2]; [7] | [2]; [8] | Lolium perenne (LOLPE); [9]

CCNC(=O)CC1CC(=O)C(c2c(C)cc(-c3ncc(F)cn3)cc2C)C1=O (stereo not drawn) [Compound B277]
100%: [1]; [3] | [1]; [4] | Avena fatua (AVEFA); [5] | Avena fatua (AVEFA); [6] | [2]; [7] | [2]; [8] | Lolium perenne (LOLPE); [9] | Lolium perenne (LOLPE); [10]

C=C(C)CNC(=O)CC1CC(=O)C(c2c(C)cc(-c3ncc(F)cn3)cc2C)C1=O (stereo not drawn) [Compound B278]
90%: Lolium perenne (LOLPE); [9]
100%: [1]; [3] | [1]; [4] | Avena fatua (AVEFA); [5] | Avena fatua (AVEFA); [6] | [2]; [7] | [2]; [8] | Lolium perenne (LOLPE); [10]

Cc1cc(-c2ncc(F)cn2)cc(C)c1C1C(=O)CC(CC(=O)N(C)C)C1=O (stereo not drawn) [Compound B279]
100%: [1]; [3] | [1]; [4] | Avena fatua (AVEFA); [5] | Avena fatua (AVEFA); [6] | [2]; [7] | [2]; [8] | Lolium perenne (LOLPE); [9] | Lolium perenne (LOLPE); [10]

CNC(=O)CC1CC(=O)C(c2c(C)cc(-c3ncc(F)cn3)cc2C)C1=O (stereo not drawn) [Compound B280]
100%: [1]; [3] | [1]; [4] | Avena fatua (AVEFA); [5] | Avena fatua (AVEFA); [6] | [2]; [7] | [2]; [8] | Lolium perenne (LOLPE); [9] | Lolium perenne (LOLPE); [10]

COCCN(CCOC)C(=O)CC1CC(=O)C(c2c(C)cc(-c3ncc(F)cn3)cc2C)C1=O (stereo not drawn) [Compound B281]
100%: [1]; [3] | Avena fatua (AVEFA); [5] | [2]; [7] | [2]; [8]
90%: Lolium perenne (LOLPE); [9]
80%: [1]; [4] | Avena fatua (AVEFA); [6] | Lolium perenne (LOLPE); [10]

CCNC(=O)CC1CC(=O)C(c2c(C)cc(-c3ncc(Br)cn3)cc2C)C1=O (stereo not drawn) [Compound B282]
100%: [1]; [3] | [1]; [4] | Avena fatua (AVEFA); [5] | Avena fatua (AVEFA); [6] | [2]; [7] | [2]; [8] | Lolium perenne (LOLPE); [9] | Lolium perenne (LOLPE); [10]

C=C(C)CNC(=O)CC1CC(=O)C(c2c(C)cc(-c3ncc(Br)cn3)cc2C)C1=O (stereo not drawn) [Compound B283]
100%: [1]; [3] | [1]; [4] | Avena fatua (AVEFA); [5] | [2]; [7] | [2]; [8] | Lolium perenne (LOLPE); [9] | Lolium perenne (LOLPE); [10]
90%: Avena fatua (AVEFA); [6]

Cc1cc(-c2ncc(C#N)cn2)cc(C)c1C1C(=O)CC(CC(=O)NCc2cccc(Cl)c2)C1=O (stereo not drawn) [Compound B284]
70%: Avena fatua (AVEFA); [6]
100%: [1]; [3] | [1]; [4] | Avena fatua (AVEFA); [5] | [2]; [7] | [2]; [8] | Lolium perenne (LOLPE); [9]
90%: Lolium perenne (LOLPE); [10]

Cc1cc(-c2ncc(Br)cn2)cc(C)c1C1C(=O)CC(CC(=O)N2CCOCC2)C1=O (stereo not drawn) [Compound B285]
90%: [1]; [4] | Avena fatua (AVEFA); [6]
100%: [1]; [3] | Avena fatua (AVEFA); [5] | [2]; [7] | [2]; [8] | Lolium perenne (LOLPE); [9] | Lolium perenne (LOLPE); [10]

CCNC(=O)CC1CC(=O)C(c2c(C)cc(-c3ncc(C#N)cn3)cc2C)C1=O (stereo not drawn) [Compound B286]
90%: Avena fatua (AVEFA); [6] | Lolium perenne (LOLPE); [10]
100%: [1]; [3] | [1]; [4] | Avena fatua (AVEFA); [5] | [2]; [7] | [2]; [8] | Lolium perenne (LOLPE); [9]

C=C(C)CNC(=O)CC1CC(=O)C(c2c(C)cc(-c3ncc(C#N)cn3)cc2C)C1=O (stereo not drawn) [Compound B287]
90%: [1]; [3] | [1]; [4] | Avena fatua (AVEFA); [6] | Lolium perenne (LOLPE); [9] | Lolium perenne (LOLPE); [10]
100%: Avena fatua (AVEFA); [5] | [2]; [7] | [2]; [8]

Cc1cc(-c2ncc(C#N)cn2)cc(C)c1C1C(=O)CC(CC(=O)N2CCOCC2)C1=O (stereo not drawn) [Compound B288]
90%: Avena fatua (AVEFA); [5] | [2]; [8] | Lolium perenne (LOLPE); [9] | Lolium perenne (LOLPE); [10]
100%: [1]; [3] | [2]; [7]
80%: [1]; [4] | Avena fatua (AVEFA); [6]
